Assay results as given in US12350268B2, “Pharmaceutical compositions of PROTAC compounds and uses thereof” (Shenzhen Pharmacin Co., Ltd., priority 2022, dated 2025).

Columns and labels:
[1] = PK of ARV-110 API capsules, fasted vs high-fat fed beagle dogs; assay type: in vivo; settings: API capsules 45 mg oral; for AUC(0-inf) / AUC(0-t) / Cmax: beagle, dog, in vivo, po, 45 mg, geometric mean
Description: Then, the capsule filled with ARV-110 API was prepared to compare the absorption advantage of our ASD formulation. Each capsule contained 45 mg ARV-110 API. The capsules were tested orally in three beagle dogs under two different dosing pretreatments (with or without high-fat food). During the study, the dogs were allowed to drink water freely and were fasted for 12 hours before administration, for the dosing pretreatment of the fasted condition, all dogs were given food 4 hours after drug administration. Each dog was administered together with 50 ml water. For the dosing pretreatment of the fed condition, all dogs were given a high-fat food 30 minutes prior to dosing.
(§1) Blood samples were taken from each group of animals at the following time points: 0 h (before test drug administration), and 0.5, 1, 1.5, 2, 3, 4, 5, 6, 8, 10, 12, 24, 48, 72 h after the drug administration. ARV-110 plasma concentrations were analyzed by an LC-MS/MS method. The non-compartment model of software WinNonlin was used to calculate the pharmacokinetic parameters of each dog, Cmax, AUClast and AUCinf. The geometric averages of each parameters were used for comparisons of the in vivo absorption under different doing pretreatments.
The results shown in Table 3C include the geometric mean values as well as coefficient of variation (CV) of the pharmacokinetic parameters of two dosing groups. […] The high-fat fed condition can enhance the oral absorption by about 6-folds compared to fasted condition.

[2] = Table 1, footnote 1: Heimbach et al., J Pharm Sci 108 (2019); cited from earlier work
[3] = PK of ARV-110 API, i.v. injection vs oral capsule, fasted beagle dogs (absolute oral bioavailability); assay type: in vivo; settings: for AUC(0-inf) / AUC(0-t) / Cmax: fasted condition, geometric mean
Description: The XRPD testing was performed on both API only (ARV-110) and the ASD formulation Batch No. P210803 using D2-Phasher (Bruker) equipment, and with the following parameters: generator, 30.0 kV/10.0 mA; detector, Lynxeye; wavelength, Cu Kal(1.54060); scan mode, continuous PSD fast; scan range, 4-40 degree; step Size, 0.01 degree; time/step, 0.5 s; sample stage rotation, 15 r/min. […] P210803 were in amorphous state. ARV-110 is still under developing in clinical stage. To measure the absolute oral bioavailability, the capsule filled with ARV-110 API was prepared only for oral administration in fasted condition. API was dissolved in DMA and Solutol mixed solution for injection. Three beagle dogs were tested in two dosing groups, one group was for oral, 50 mg dose per dog, and the other group for injection, 5 mg dose per dog. During the study, the dogs were allowed to drink water freely and were fasted for 12 hours before administration, all dogs were given food 4 hours after drug administration. Each dog was administered together with 50 ml water.
Blood samples were taken from each group of animals at the following time points: 0 h (before test drug administration), and 0.25, 0.5, 1, 1.5, 2, 4, 6, 8, 10, 24 h after the drug administration. ARV-110 plasma concentrations were analyzed by an LC-MS/MS method. The non-compartment model of software WinNonlin was used to calculate the pharmacokinetic parameters of each dog, Cmax, AUClast, and AUCinf. The geometric averages of each parameters were used for comparisons of the in vivo absorption under different dosing pretreatments.
The results shown in Table 3B include the geometric mean values as well as coefficient of variation (CV) of the pharmacokinetic parameters of the two dosing groups. […] The absolute bioavailability of ARV-110 is about 6.0%.

[4] = cited from earlier work
[5] = Three-way crossover PK of ARV-110 API and ASD compositions, fed beagle dogs; settings: in vivo, 50 mg API per dog oral, fed condition, geometric mean
Description: Blood samples were taken from each group of animals at the different time points after the drug administration. Plasma concentrations were analyzed by an LC-MS/MS method. The non-compartment model of software WinNonlin was used to calculate the pharmacokinetic parameters of each dog, Cmax, AUClast and AUCinf. The geometric averages of each parameters were used for comparisons of the in vivo absorption under different doing pretreatments.
The capsules were given at the dose of 50 mg API per dog for oral administration for each group in fed condition.

[6] = Three-way crossover PK of ARV-471 API and ASD compositions, fed beagle dogs; assay type: in vivo; settings: dog, plasma, 60 mg of API oral, fed condition, geometric mean
Description: (§2) To investigate the oral absorption of ARV-110, two-way crossover or three-way crossover designs were performed. Six Beagle dogs were classified into two or three groups. Each group was administered capsules of different formulations comprising the API or API only at various dose to compare the API absorption in such formulations and also any difference in API absorption in fasted or fed conditions. Each dog was administered with 50 mL water in total. To measure the absolute bioavailability, i.v. injection of a solution comprising API was also performed. The API solution for i.v. injection was prepared by dissolving in DMA and Solutol mixed solution.
(§3) In fed condition, the dogs were fed with high-fat food 30 mins before administration, according to the FDA guidance entitled “Assessing the effects of food on drug in INDs and NDAs-Clinical pharmacology considerations” published on Feb. 26, 2019.
as §1, with “different” for “following”, “points” for “points: 0 h (before test drug administration), and 0.5, 1, 1.5, 2, 3, 4, 5, 6, 8, 10, 12, 24, 48, 72 h”, “Plasma” for “ARV-110 plasma”
(§4) To investigate the oral absorption of ARV-471, the same study design and procedures as described in Example 3 were performed.
A six-dog, three-way crossover study was performed to evaluate oral bioavailability of ARV-471 API and ASD compositions in beagle dogs in fed condition. There were three study groups, ARV471 API administered in fed condition ASD composition batch no. P220215-1 administered in fed condition, and ASD composition batch no. P220215-2 administered in fed condition, each containing 2 dogs. Capsules were filled with API powder, ASD composition from batch no. P220215-1 and ASD composition from batch no. P220215-2, respectively. […]

[7] = PK of ARV-471 API, oral fasted and fed and i.v., beagle dogs; assay type: in vivo; settings: for AUC(0-inf) / AUC(0-t) / Cmax: geometric mean
Description: as §2
(§5) In fasted condition, the dogs were allowed to drink water freely and were fasted for 12 hours before administration, and then were given food 4 hours after drug administration.
as §3
as §1, with “different” for “following”, “points” for “points: 0 h (before test drug administration), and 0.5, 1, 1.5, 2, 3, 4, 5, 6, 8, 10, 12, 24, 48, 72 h”, “Plasma” for “ARV-110 plasma”
as §4
A three-dog, two-way crossover study was performed to evaluate oral bioavailability of ARV-471 API in beagle dogs in fasted and fed condition. A three-dog study was performed to measure the ARV-471 API bioavailability after i.v. injection in fasted condition. Each capsule was filled with 60 mg of API powder and a 6 mg/vial API solution was prepared. One capsule or one vial of API solution were administered to each dog according to the design of the two studies. The results shown in Table 5B include the geometric mean values as well as coefficient of variation (CV) of the pharmacokinetic parameters of the three dosing groups. […] The absolute bioavailability of ARV-471 API is about 7%, and high-fat food can enhance the oral absorption by 2 times.

[8] = PK of ARV-471 API high dose, fasted vs fed beagle dogs; assay type: in vivo; settings: for AUC(0-inf) / AUC(0-t) / Cmax: beagle, dog, plasma, po, 200 mg, API capsule 200 mg oral, geometric mean
Description: as §2, §5, §3
as §1, with “different” for “following”, “points” for “points: 0 h (before test drug administration), and 0.5, 1, 1.5, 2, 3, 4, 5, 6, 8, 10, 12, 24, 48, 72 h”, “Plasma” for “ARV-110 plasma”
as §4
A six-dog, two-way crossover study was performed to evaluate oral bioavailability of ARV-471 API dose escalation in beagle dogs in fasted and fed condition. There were two study groups, ARV-471 API orally administered in fasted condition and in fed condition, 200 mg of ARV-471 API was filled in each capsule. The capsules were given at the dose of 200 mg API per dog for oral administration for each group. The results shown in Table 5F include the geometric mean values as well as coefficient of variation (CV) of the pharmacokinetic parameters of two dosing groups.

[9] = beagle, in vivo, iv, I.V. injection 5 mg per dog
[10] = beagle, in vivo, API oral capsule 50 mg per dog
[11] = beagle, dog, plasma, iv, 6 mg, i.v. 6 mg, fasted condition
[12] = beagle, dog, plasma, po, 60 mg, API capsule oral 60 mg, fasted condition
[13] = beagle, dog, plasma, po, 60 mg, API capsule oral 60 mg, fed condition

Question: With `N#Cc1ccc(O[C@H]2CC[C@H](NC(=O)c3ccc(N4CCC(CN5CCN(c6cc7c(cc6F)C(=O)N(C6CCC(=O)NC6=O)C7=O)CC5)CC4)nn3)CC2)cc1Cl` (some centres unmarked) [ARV-110, N-((1r,4r)-4-(3-chloro-4-cyanophenoxy)cyclohexyl)-6-(4-((4-(2-(2,6-dioxopiperidin-3-yl)-6-fluoro-1,3-dioxoisoindolin-S-yl)piperazin-1-yl)methyl)piperidin-1-yl)pyridazine-3-carboxamide] as the molecule, how does the “enhancement of oral absorption, high-fat fed vs fasted condition” value [1] read?
Answer: about 6 folds

Question: What about the “food effect (in words)” value ([1]; fed vs fasted) of the same molecule?
Answer: significant food effect

Question: What about the AUC(0-inf) ([1]; fasted condition) of the same molecule?
Answer: 278 ng·h/mL

Question: And the AUC(0-t) ([1]; fasted condition)?
Answer: 218 ng·h/mL

Question: What about the Cmax ([1]; fasted condition) of the same molecule?
Answer: 7.6 ng/mL

Question: And the AUC(0-inf) ([1]; fed condition (high-fat food))?
Answer: 1550 ng·h/mL

Question: What about the AUC(0-t) ([1]; fed condition (high-fat food)) of the same molecule?
Answer: 1410 ng·h/mL

Question: What about the Cmax ([1]; fed condition (high-fat food)) of the same molecule?
Answer: 56.5 ng/mL

Question: And the “Calculated log P” value [2]?
Answer: 5.8^1

Question: And the “oral absorption (in words)” value ([3]; amorphous API, oral 50 mg, fasted dogs)?
Answer: poor absorption in fasted condition

Question: What about the bioavailability ([3]; beagle, dog, in vivo, 50 mg per dog, oral 50 mg vs i.v. 5 mg, fasted dogs) of the same molecule?
Answer: ~6%

Question: And the AUC(0-inf) [3, 9]?
Answer: 866 ng·h/mL

Question: And the AUC(0-t) [3, 9]?
Answer: 588 ng·h/mL

Question: What about the Cmax [3, 9] of the same molecule?
Answer: 575 ng/mL

Question: And the AUC(0-inf) [3, 10]?
Answer: 279 ng·h/mL

Question: What about the AUC(0-t) [3, 10] of the same molecule?
Answer: 162 ng·h/mL

Question: And the Cmax [3, 10]?
Answer: 10.7 ng/mL

Question: What about the “dissolution in the aqueous solution (in words)” value [4] of the same molecule?
Answer: very hard to dissolve in the aqueous solution

Question: What about the AUC(0-inf) [5] of the same molecule?
Answer: 3000 ng·h/mL

Question: And the AUC(0-t) [5]?
Answer: 2570 ng·h/mL

Question: What about the Cmax [5] of the same molecule?
Answer: 80.3 ng/mL

Question: With `O=C1CC[C@H](N2Cc3cc(N4CCN(CC5CCN(c6ccc([C@@H]7c8ccc(O)cc8CC[C@@H]7c7ccccc7)cc6)CC5)CC4)ccc3C2=O)C(=O)N1` [ARV-471, (3S)-3-[5-[4-[[1-[4-[(1R,2S)-6-hydroxy-2-phenyl-tetralin-1-yl]phenyl]-4-piperidyl]methyl]piperazin-1-yl]-1-oxo-isoindolin-2-yl]piperidine-2,6-dione] as the molecule, how does the AUC(0-inf) [6] read?
Answer: 5840 ng·h/mL

Question: And the AUC(0-t) [6]?
Answer: 5600 ng·h/mL

Question: What about the Cmax [6] of the same molecule?
Answer: 381 ng/mL

Question: What about the “enhancement of oral absorption by high-fat food” value ([7]; API oral 60 mg, fed vs fasted) of the same molecule?
Answer: 2 times

Question: And the “oral absorption (in words)” value ([7]; amorphous API oral 60 mg, fasted dogs)?
Answer: poor absorption in fasted condition

Question: What about the AUC(0-inf) [7, 11] of the same molecule?
Answer: 3220 ng·h/mL

Question: What about the AUC(0-t) [7, 11] of the same molecule?
Answer: 3120 ng·h/mL

Question: And the Cmax [7, 11]?
Answer: 609 ng/mL

Question: What about the AUC(0-inf) [7, 12] of the same molecule?
Answer: 2480 ng·h/mL

Question: And the AUC(0-t) [7, 12]?
Answer: 2360 ng·h/mL

Question: And the Cmax [7, 12]?
Answer: 200 ng/mL

Question: And the AUC(0-inf) [7, 13]?
Answer: 5230 ng·h/mL

Question: What about the AUC(0-t) [7, 13] of the same molecule?
Answer: 5020 ng·h/mL

Question: And the Cmax [7, 13]?
Answer: 428 ng/mL

Question: And the bioavailability ([7]; beagle, dog, plasma, oral 60 mg vs i.v. 6 mg, fasted dogs, read-out: absolute bioavailability)?
Answer: ~7%

Question: And the “dissolution in the aqueous solution (in words)” value [4]?
Answer: very hard to dissolve in the aqueous solution

Question: And the “enhancement of oral absorption by high-fat food vs fasted condition” value ([8]; API 200 mg oral)?
Answer: 2 times

Question: And the AUC(0-inf) ([8]; fasted condition)?
Answer: 7650 ng·h/mL

Question: What about the AUC(0-t) ([8]; fasted condition) of the same molecule?
Answer: 7140 ng·h/mL

Question: And the Cmax ([8]; fasted condition)?
Answer: 415 ng/mL

Question: What about the AUC(0-inf) ([8]; fed condition) of the same molecule?
Answer: 15600 ng·h/mL

Question: What about the AUC(0-t) ([8]; fed condition) of the same molecule?
Answer: 14700 ng·h/mL

Question: And the Cmax ([8]; fed condition)?
Answer: 860 ng/mL
